Laboratory results taken from patent publication US12240816B2, “Deuterated compounds and uses thereof” (Aldeyra Therapeutics, Inc., priority 2015, dated 2025).
“And” between values parts separate entries of the source, which are not always exact repeats. Identical values can stand only once. “Also recorded” adds a separate entry of the source. Marks after values point to notes of the source that are not given here.

Experiments:
5-HT2B (h) = 5-HT2B (h) (Homo sapiens, UniProt P41595); test: 5-HT2B (h) (agonist radioligand) binding assay
Sequence of 5-HT2B (h) (P41595 whole entry): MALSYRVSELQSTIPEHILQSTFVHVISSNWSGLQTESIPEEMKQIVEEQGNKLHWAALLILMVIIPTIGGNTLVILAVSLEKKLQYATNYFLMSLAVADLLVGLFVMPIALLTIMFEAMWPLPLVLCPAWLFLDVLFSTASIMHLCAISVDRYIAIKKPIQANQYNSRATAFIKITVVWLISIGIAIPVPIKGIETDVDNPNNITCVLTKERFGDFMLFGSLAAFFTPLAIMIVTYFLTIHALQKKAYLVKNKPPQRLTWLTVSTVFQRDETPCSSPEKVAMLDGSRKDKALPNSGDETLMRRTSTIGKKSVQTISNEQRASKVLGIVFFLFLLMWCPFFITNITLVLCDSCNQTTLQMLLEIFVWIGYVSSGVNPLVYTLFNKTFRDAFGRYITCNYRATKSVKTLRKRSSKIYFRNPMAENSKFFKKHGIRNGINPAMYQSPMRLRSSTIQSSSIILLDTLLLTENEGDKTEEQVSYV

[1] = biological target: enzyme and uptake assay panel targets (Table 36) (Homo sapiens, UniProt O00408); test: biochemical; type: biochemical; conditions: PDE2A1 (h); reference compound
Sequence of enzyme and uptake assay panel targets (Table 36) (O00408 whole entry): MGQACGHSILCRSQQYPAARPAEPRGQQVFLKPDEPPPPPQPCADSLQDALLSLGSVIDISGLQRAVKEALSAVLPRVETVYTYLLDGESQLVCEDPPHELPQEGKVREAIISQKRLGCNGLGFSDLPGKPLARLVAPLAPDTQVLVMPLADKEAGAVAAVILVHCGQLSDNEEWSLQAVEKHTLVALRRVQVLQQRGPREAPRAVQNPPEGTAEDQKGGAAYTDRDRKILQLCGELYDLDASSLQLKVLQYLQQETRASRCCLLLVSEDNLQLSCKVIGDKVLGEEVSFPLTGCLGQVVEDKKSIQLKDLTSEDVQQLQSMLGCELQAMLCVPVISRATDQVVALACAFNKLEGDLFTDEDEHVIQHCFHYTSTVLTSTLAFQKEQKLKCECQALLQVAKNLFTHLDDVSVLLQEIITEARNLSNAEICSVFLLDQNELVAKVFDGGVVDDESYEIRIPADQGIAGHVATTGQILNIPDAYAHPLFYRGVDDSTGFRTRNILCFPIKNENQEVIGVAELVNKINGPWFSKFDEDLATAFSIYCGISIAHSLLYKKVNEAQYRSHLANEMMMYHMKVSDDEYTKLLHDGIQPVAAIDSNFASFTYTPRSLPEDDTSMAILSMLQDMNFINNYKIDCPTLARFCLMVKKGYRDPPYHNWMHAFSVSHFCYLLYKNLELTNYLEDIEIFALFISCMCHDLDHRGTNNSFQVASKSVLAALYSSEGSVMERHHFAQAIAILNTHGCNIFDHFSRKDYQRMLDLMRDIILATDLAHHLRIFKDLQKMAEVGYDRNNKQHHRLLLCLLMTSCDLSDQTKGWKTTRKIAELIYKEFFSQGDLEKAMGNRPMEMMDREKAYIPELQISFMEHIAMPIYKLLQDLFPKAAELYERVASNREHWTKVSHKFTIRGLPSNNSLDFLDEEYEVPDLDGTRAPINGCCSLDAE

rat hippocampal cultures [2] = test: cells; type: cell-based; conditions: DMSO; for Neuronal viability (CFDA), % of Control / Neuronal viability (CFDA), Mean / Neuronal viability (CFDA), individual values: 5 hours
rat hippocampal cultures [3] = test: Propidium iodide cell death assay, protection from hydrogen peroxide toxicity; type: cell-based; conditions: DMSO; for Cell death (Propidium Iodide), % of Control / Cell death (Propidium Iodide), Mean / Cell death (Propidium Iodide), individual values: 5 hours
[4] = 0.1 μM + 10 μM hydrogen peroxide
[5] = 10 μM + 10 μM hydrogen peroxide
[6] = 100 μM + 10 μM hydrogen peroxide
[7] = 300 μM + 10 μM hydrogen peroxide
[8] = Example 13, CFDA, 10 μM hydrogen peroxide, 5 h, 0.1 to 300 μM tested
[9] = Example 13, PI, 10 μM hydrogen peroxide, 5 h, 0.1 to 300 μM tested

SMILES | Neuronal viability (CFDA), % of Control (rat hippocampal cultures [2]; [4]) [%] | Neuronal viability (CFDA), Mean (rat hippocampal cultures [2]; [4]) | Neuronal viability (CFDA), % of Control (rat hippocampal cultures [2]; 1 μM + 10 μM hydrogen peroxide) [%] | Neuronal viability (CFDA), Mean (rat hippocampal cultures [2]; 1 μM + 10 μM hydrogen peroxide) | Neuronal viability (CFDA), % of Control (rat hippocampal cultures [2]; [5]) [%] | Neuronal viability (CFDA), Mean (rat hippocampal cultures [2]; [5]) | Neuronal viability (CFDA), % of Control (rat hippocampal cultures [2]; [6]) [%] | Neuronal viability (CFDA), Mean (rat hippocampal cultures [2]; [6]) | Neuronal viability (CFDA), % of Control (rat hippocampal cultures [2]; [7]) [%] | Neuronal viability (CFDA), Mean (rat hippocampal cultures [2]; [7]) | Cell death (Propidium Iodide), % of Control (rat hippocampal cultures [3]; [4]) [%] | Cell death (Propidium Iodide), Mean (rat hippocampal cultures [3]; [4]) | Cell death (Propidium Iodide), individual values (rat hippocampal cultures [3]; [4]) | Cell death (Propidium Iodide), % of Control (rat hippocampal cultures [3]; 1 μM + 10 μM hydrogen peroxide) [%] | Cell death (Propidium Iodide), Mean (rat hippocampal cultures [3]; 1 μM + 10 μM hydrogen peroxide) | Cell death (Propidium Iodide), individual values (rat hippocampal cultures [3]; 1 μM + 10 μM hydrogen peroxide) | Cell death (Propidium Iodide), % of Control (rat hippocampal cultures [3]; [5]) [%] | Cell death (Propidium Iodide), Mean (rat hippocampal cultures [3]; [5]) | Cell death (Propidium Iodide), individual values (rat hippocampal cultures [3]; [5]) | Cell death (Propidium Iodide), % of Control (rat hippocampal cultures [3]; [6]) [%] | also measured
COc1cc(CC(C)N)c(OC)cc1I (racemic) [(±)DO1] | – | – | – | – | – | – | – | – | – | – | – | – | – | – | – | – | – | – | – | – | IC50 (5-HT2B (h)): 6.9 nM; nH (5-HT2B (h)): 0.9
CCCCCC[C@@H]([C@@H](C)O)n1cnc2c(N)ncnc21 (racemic) [EHNA] | – | – | – | – | – | – | – | – | – | – | – | – | – | – | – | – | – | – | – | – | IC50 [1]: 1100 nM; nH [1]: 0.8
CC(C)(O)c1nc2ccccc2nc1N [ALD2] | 67 ± 3 | 38243 | 67 ± 4 | 38073 | 71 ± 5 | 40512 | 68 ± 4 | 38674 | 72 ± 4 | 41274 | 172 ± 5 | 274 | 258 and 294 (2×) and 259 and 266 | 166 ± 9 | 264 | 229 and 294 and 258 and 242 and 298 | 167 ± 13 | 266 | 293 and 329 and 258 and 225 (2×) | 157 ± 8 | Neuronal viability (CFDA), individual values (rat hippocampal cultures [2]; [4]): 40839 (3×) and 34813 and 33885; Cell death (Propidium Iodide), Mean (rat hippocampal cultures [3]; [6]): 249; Cell death (Propidium Iodide), individual values (rat hippocampal cultures [3]; [6]): 225 (2×) and 258 and 242 and 294; Cell death (Propidium Iodide), % of Control (rat hippocampal cultures [3]; [7]): 182 ± 8%; Cell death (Propidium Iodide), Mean (rat hippocampal cultures [3]; [7]): 290; Cell death (Propidium Iodide), individual values (rat hippocampal cultures [3]; [7]): 302 and 294 (2×) and 320 and 242
CC(C)(O)c1nc2ncccc2cc1N [ALD5] | 69 ± 1 | 38942 | 66 ± 3 | 37447 | 65 ± 3 | 36940 | 66 ± 4 | 37605 | 74 ± 1 | 42249 | 202 ± 15 | 301 | 225 and 325 and 294 (2×) and 366 | 196 ± 1 | 292 | 285 and 294 (4×) | 191 ± 11 | 285 | 294 (3×) and 320 and 225 | 181 ± 7 | Cell death (Propidium Iodide), Mean (rat hippocampal cultures [3]; [6]): 269; Cell death (Propidium Iodide), individual values (rat hippocampal cultures [3]; [6]): 250 (2×) and 294 (2×) and 255; Cell death (Propidium Iodide), % of Control (rat hippocampal cultures [3]; [7]): 205 ± 8%; Cell death (Propidium Iodide), Mean (rat hippocampal cultures [3]; [7]): 305; Cell death (Propidium Iodide), individual values (rat hippocampal cultures [3]; [7]): 294 (3×) and 293 and 352
[2H]C([2H])([2H])C(O)(c1nc2ccc(Cl)cc2cc1N)C([2H])([2H])[2H] [ALD6] | 59 ± 3 | 34394 | 65 ± 5 | 38055 | 83 ± 4 | 48055* | 98 ± 4 | 57123* | 98 ± 4 | 56976* | 165 ± 15 | 273 | 294 and 242 and 356 and 225 and 250 | 120 ± 5 | 198* | 223 and 183 (2×) and 189 and 214 | 107 ± 5 | 176* | 189 (2×) and 139 and 179 and 183 | 108 ± 7 | Neuronal viability (CFDA), individual values (rat hippocampal cultures [2]; [7]): 53184 (3×) and 59551 and 65778; Cell death (Propidium Iodide), Mean (rat hippocampal cultures [3]; [6]): 178*; Cell death (Propidium Iodide), individual values (rat hippocampal cultures [3]; [6]): 206 and 189 and 135 and 167 and 193; Cell death (Propidium Iodide), % of Control (rat hippocampal cultures [3]; [7]): 107 ± 6%; Cell death (Propidium Iodide), Mean (rat hippocampal cultures [3]; [7]): 176*; Cell death (Propidium Iodide), individual values (rat hippocampal cultures [3]; [7]): 189 (2×) and 147 and 197 and 159
CC(C)(O)c1nc2ccccc2nc1N [ALD-2] | – | – | – | – | – | – | – | – | – | – | – | – | – | – | – | – | – | – | – | – | EC50 ± SE (rat hippocampal cultures [2]; [8]): Inactive; Full Efficacy Concentration (rat hippocampal cultures [2]; [8]): Inactive; No effect Concentration (rat hippocampal cultures [2]; [8]): Inactive; EC50 ± SE (rat hippocampal cultures [3]; [9]): Inactive; Full Efficacy Concentration (rat hippocampal cultures [3]; [9]): Inactive; No effect Concentration (rat hippocampal cultures [3]; [9]): Inactive; protection from cell death (rat hippocampal cultures [3]; PI, 0.1 to 300 μM, 10 μM hydrogen peroxide, 5 h): no statistically significant protection from cell death; also recorded: did not produce statistically significant protection from cell death
